# Data published in patent US8114888B2, “Isothiazoloquinolones and related compounds as anti-infective agents” (Achillion Pharmaceuticals, Inc., priority 2005, dated 2012).
# Tests used:
# [1] = Cell viability staining with Alamar Blue (compound cytotoxicity); assay type: cell-based; conditions: positive control with known CC50
# Experimental: To determine whether the microcidal effect observed against S. aureus and E. coli is specific to bacterial cells, compounds are screened for cell viability effects on several human cell types.
# Optimal cell density is first determined by plating cells in a 96-well plate standard sterile tissue culture plates in 100 μl media, 10% FBS at six cell densities from 500 cells/well to 15,000 cells/well. A cell free well containing only media is used as a control. Cells are incubated at 37° C. in a 5% CO2 incubator for 24 hours. 10% culture volume (10 ul) of Alamar Blue (Biosource, DAL1100, 100 mL) is then added. Cells are incubated at 37° C. in a 5% CO2 incubator and read in a Victor V plate reader, 544 nm excitation, 590 nm emission, at 3, 4, and 24 hours after the addition of Alamar Blue. The cell number vs. change in fluorescence is plotted to determine linearity of signal vs. cell number. The optimal density varies between 500-15,000 cells/well depending on the specific cell type. […]
# Cells are plated at optimal cell density in a standard sterile tissue culture 96 well plate, and incubated at 37° C. […] Plates are incubated 4 hours at 37° C. in a 5% CO2 incubator and read in a Victor V plate reader, 544 nm excitation, 590 nm emission. […]
# The change in fluorescence vs. concentration of test compound is plotted to determine the cytotoxicity of the compound. […]
SMILES,melting point,"CC50 ([1]; Chinese hamster, CHO cells (Chinese hamster ovary))","CC50 ([1]; human, Hep 2 cells (laryngeal carcinoma))"
"NC1CCc2cc(-c3cc4c(cc3F)c(=O)c3c(=O)[nH]sc3n4C3CC3)ccc2C1 (racemic) [Compound 31, (rac)-7-(6-Amino-5,6,7,8-tetrahydronaphthalen-2-yl)-9-cyclopropyl-6-fluoro-9H-isothiazolo[5,4-b]quinoline-3,4-dione]",> 257 °C (dec.),–,–
CC(C)(C)c1ccc(C(O)CCCN2CCC(C(O)(c3ccccc3)c3ccccc3)CC2)cc1 (stereo not shown) [Terfenadine],–,4.3 to 6.5 µM,3 to 5 µM
O=c1[nH]sc2c1c(=O)c1cc(F)c(C3=CCNCC3)cc1n2C1CC1,> 241 °C (dec.),–,–
